Tests used:
[1] = system: Peripheral blood mononuclear cells (PBMCs); experiment: Plasma clotting assay with PBMCs; assay type: cell-based, human; conditions: p38 inhibitor 10 µM pre-incubated 18 to 24 hours, anti-TF antibody added 30 minutes prior to clotting, OD405
Procedure: Peripheral venous blood was obtained by consent from normal, healthy volunteers and mononuclear cells were isolated using Histopaque 1077 (Sigma) density gradient centrifugation. Following three washes with RPMI (Invitrogen) supplemented with 1% fetal calf serum (FCS), cells were counted and viability was assessed using a Guava PCA-96 instrument (Guava Technologies, Hayward, CA). Cells were resuspended to 1.67 x 10^6 cells/mL in RPMI media containing 10% FCS, and 4 mL/well were added to a 6-well dish (Corning-Costar). Lipopolysaccharide (LPS) was diluted into cell cultures to a final concentration of 10 ng/ml. p38 inhibitor compound 1 was added to cell cultures at a final concentration of 10 µM. An equivalent dilution of DMSO was added to untreated cultures. The following four assay conditions were: (+) LPS (+) p38 inhibitor, (+) LPS (-) p38 inhibitor, (-) LPS (+) p38 inhibitor, and (-) LPS (-) p38 inhibitor. […]
Plasma Clotting Assay. […] Clotting was monitored at 15 second intervals for 2 hours at room temperature using a Spectra MAX 190 (Molecular Devices, Sunnyvale, CA) at a wavelength of 405 nm. […]
PBMCs ([…] in 100 µl of HBSS) were pre-incubated with 25 µl of anti-TF antibody compound 3 (10 µg/ml) for 30 minutes at room temperature in the same 96-well plate as the untreated cells above. […] CaCl2 and pooled human plasma were added and the clotting reaction was monitored as described above.

[2] = system: Human mesenchymal stem cells (MSC); experiment: Plasma clotting assay with human mesenchymal stem cells; assay type: cell-based; conditions: p38 inhibitor 10 µM pre-culture 10 days; anti-TF antibody 30 minutes pre-binding; untreated cells 1042.0
Procedure: (§1) In the previous example, cells were stimulated overnight to produce TF by LPS induction. Inhibition of this process was achieved by addition of p38 inhibitor compound 1, evaluated by plasma clotting assay. In this example, two types of cells were pre-cultured with the p38 inhibitors compound 1 and compound 2 for 10 days to evaluate the effect of p38 MAPK inhibitors on coagulation. Cells were separately treated using a final concentration of 10 µM of each p38 inhibitor. Parallel treatments of DMSO vehicle were included as a control. Media, containing the above compounds were replenished during culture at intervals of every 2 days.
(§2) Human mesenchymal stem cells (MSC) were isolated from whole bone marrow purchased from Cambrex BioScience Walkersville, Inc. Cells were obtained from 10-ml aspirates taken from the iliac crest of normal human donors (age about 20 years). Mononuclear cells were isolated by gradient centrifugation. […]
(§3) The plasma clotting assay was performed as described in Example 1. Cells were lightly trypsinized from culture on the day of assay, washed, counted, and viability was determined before adjusting to 10^6 cells/ml in HBSS. […] Coagulation was monitored at room temperature in a kinetic plate reader using 15 second interval readings at 405 nm over 60 to 120 minutes. A final reading of T1/2 maximal clotting time was obtained for each sample condition. […]

[3] = system: J82 cells; experiment: Plasma clotting assay with J82 bladder carcinoma cells; assay type: cell-based, human; conditions: p38 inhibitor 10 µM pre-culture 10 days; anti-TF antibody 30 minutes pre-binding; untreated cells 155.01
Procedure: as §1, §2, §3

[4] = system: isolated mouse islets; experiment: Plasma clotting assay with isolated mouse islets; assay type: cell-based, Balb/c mice; conditions: 10 µM p38 inhibitor, islets cultured 72 hours; 50 islets/well; vehicle control 388.6 (compound 2 experiment), 488.9 (second experiment)
Procedure: Pancreata were harvested from Balb/c mice via cannulation of the common bile duct and perfusion with a liberase solution (Roche). Pancreata were digested at 37°C for 15 minutes followed by discontinuous ficoll gradient centrifugation to remove acinar and ductal tissue.
Islets of similar size were collected and plated in 3 ml of islet growth medium in a 6-well culture dish (300 islets per well) with or without p38 MAPK inhibitors (10 µM compound 1 or compound 2). Vehicle control was an equivalent dilution of DMSO. Islets were cultured at 37°C in 5% CO2 for 72 hours. The three treatment conditions were: vehicle control, (+) p38 inhibitor compound 1, and (+)p38 inhibitor compound 2.
Plasma Clotting Assay. […] Clotting was monitored at 15 second intervals for 2 hours at room temperature in a Spectra MAX 190 (Molecular Devices, Sunnyvale, CA) at 405nm. Times to half maximum OD were calculated as 388.6 seconds for the vehicle control and 596.9 seconds for cells treated with p38 inhibitor compound 2. […] In a second experiment, the time to half maximum was calculated as 488.9 seconds for the vehicle control and 974.7 seconds for treated islets. […]

Compound: OCCC#Cc1nc(-c2ccc(F)cc2)c(-c2ccncc2)n1CCCc1ccccc1 [compound 1, 4-[4-(4-fluorophenyl)-1-(3-phenylpropyl)-5-(4-pyridinyl)-1H-imidazol-2-yl]-3-butyn-1-ol]
- time to half the maximum OD ([1]; (+) LPS 10 ng/ml, (+) LPS cells without inhibitor 928.6): 1837.3 s
- time to half the maximum OD ([1]; (-) LPS, untreated cells 2946.4): 3289.0 s
- time to half the maximum OD [2]: 1882.2 s
- times to reach ½ maximal OD [3]: 160.9 s
- Times to half maximum OD [4]: 974.7 s
